Laboratory results reported in patent US6413935B1, “Induction of immune response against desired determinants” (priority 1993, dated 2002).
Read-outs that look alike come from different tables or passages of the source. Non-standard residues stand in square brackets, D forms with d. Residues, ends and D or L forms follow the SMILES beside them. No end group written: not given here. Cha = N[C@@H](CC1CCCCC1)C(=O)O

Key:
human PBMC T cell lines = format: cell-based
DRw53 [1] = target: T1, DRw53 (Homo sapiens, UniProt P01903+P13762); experiment: biochemical
DR3 [2] = target: T2, DR3 (Homo sapiens, UniProt P01903+P01911, A100K/A102G/A103R/A169T/F55Y/I96L/K41T/L162R/M171V/P40S/Q125H/Q178H/Q39Y/R42S/S66N/T106N/T262R/W38E/Y61H); experiment: biochemical
DR2w2a [3] = target: T3, DR2w2a (Homo sapiens, UniProt P01903+Q30154); experiment: biochemical
DR2w2a [4] = target: T3, DR2w2a; conditions: read-out: Binding capacity DR2w2a, IC50
DR7 = conditions: for Loss of DR7 binding reactivity: relative to parent 760.57
IE^k = format: binding, mouse; conditions: read-out: Capacity to bind purified IE^k, IC50
C57BL/6J (H-2^b+) mice = conditions: mouse, in vivo
DRw53 [5] = target: T1, DRw53
DR4w4 [6] = target: T4, DR4w4 (Homo sapiens, UniProt P01903+P01911, A100K/A169T/F76Y/I96L/K127E/L162R/M171V/N62H/P40V/Q125Y/R42H/S133A/S149N/S66Y/V115G/V209L/W38E); experiment: biochemical; conditions: PADRE Class II Binding Affinities DR4w4
DR1 = DR1 (Homo sapiens, UniProt P01903+P01911, A100R/D57E/F55L/F60I/F76Y/I96L/L162R/M171V/P40L/Q125E/R42F/V115G/Y59C); conditions: relative to parent 760.57
DR4w4 [7] = target: T4, DR4w4; conditions: relative to parent 760.57
DR3 [8] = target: T2, DR3
[9] = read-out: Binding capacity DR5, IC50
[10] = read-out: PADRE Class II Binding Affinities, Table VIII A
[11] = read-out: PADRE Class II Binding Affinities DR7, Table VIII A
[12] = read-out: PADRE Class II Binding Affinities DR5, Table VIII A

T3 sequence (P01903 26-254): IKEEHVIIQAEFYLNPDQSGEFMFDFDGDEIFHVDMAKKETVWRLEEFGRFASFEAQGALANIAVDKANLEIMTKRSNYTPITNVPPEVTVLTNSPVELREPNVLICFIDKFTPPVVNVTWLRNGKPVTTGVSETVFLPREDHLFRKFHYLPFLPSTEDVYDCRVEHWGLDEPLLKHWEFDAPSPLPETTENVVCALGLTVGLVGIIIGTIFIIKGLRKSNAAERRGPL
T3 sequence (Q30154 30-266): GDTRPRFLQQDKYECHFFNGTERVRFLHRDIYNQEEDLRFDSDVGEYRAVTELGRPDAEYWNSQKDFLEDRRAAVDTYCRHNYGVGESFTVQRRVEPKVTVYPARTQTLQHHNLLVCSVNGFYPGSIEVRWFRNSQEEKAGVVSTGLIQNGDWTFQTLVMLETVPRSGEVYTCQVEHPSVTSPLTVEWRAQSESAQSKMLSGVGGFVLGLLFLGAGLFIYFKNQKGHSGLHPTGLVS
T1 sequence (P01903 26-254): as the sequence (P01903 26-254) above
T1 sequence (P13762 30-266): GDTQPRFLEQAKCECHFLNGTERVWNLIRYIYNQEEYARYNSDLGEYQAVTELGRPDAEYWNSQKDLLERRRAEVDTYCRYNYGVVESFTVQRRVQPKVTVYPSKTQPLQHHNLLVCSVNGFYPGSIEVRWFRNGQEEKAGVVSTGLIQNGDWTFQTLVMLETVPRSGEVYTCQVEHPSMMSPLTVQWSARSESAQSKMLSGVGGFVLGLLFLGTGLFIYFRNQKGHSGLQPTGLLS

CC(C)C[C@H](NC(=O)[C@@H](NC(=O)[C@H](Cc1c[nH]c2ccccc12)NC(=O)[C@H](C)NC(=O)[C@H](C)NC(=O)[C@@H](NC(=O)[C@H](CC1CCCCC1)NC(=O)[C@H](CCCCN)NC(=O)[C@H](C)N)C(C)C)[C@@H](C)O)C(=O)N[C@@H](CCCCN)C(=O)N[C@@H](C)C(=O)N[C@@H](C)C(=O)N[C@@H](C)C(N)=O [Peptide 965.17]
Donors with significant (>10,000 cpm) T cell response / donors tested, second stimulation (human PBMC T cell lines): 2/5 | Donors with significant (>10,000 cpm) T cell response / donors tested, third stimulation (human PBMC T cell lines): 4/5 | IC50 (DRw53 [1]): 107 nM | IC50 (DR3 [2]; PADRE Class II Binding Affinities DR3): 3210 nM | IC50 (DR2w2a [3]; PADRE Class II Binding Affinities DR2w282): 5.8 nM

YSGPLKAEIAQRLEDV [MT (Y)17-31, reference compound]
IC50 (DR2w2a [4]): 350 nM | IC50 (DR7; read-out: Binding capacity DR7, IC50): 208 nM | IC50 (DR5; [9]): > 10000 nM

CC(C)C[C@H](NC(=O)[C@@H](NC(=O)[C@H](Cc1c[nH]c2ccccc12)NC(=O)[C@H](C)NC(=O)[C@H](C)NC(=O)[C@@H](NC(=O)[C@H](CC1CCCCC1)NC(=O)[C@H](CCCCN)NC(=O)[C@@H](C)N)C(C)C)[C@@H](C)O)C(=O)N[C@@H](CCCCN)C(=O)N[C@@H](C)C(=O)N[C@@H](C)C(=O)N[C@H](C)C(N)=O [Peptide 965.10]
IC50 (IE^k; Table III): 326 nM | Donors with significant (>10,000 cpm) T cell response / donors tested, second stimulation (human PBMC T cell lines): 9/12 and all 5 individuals | Donors with significant (>10,000 cpm) T cell response / donors tested, third stimulation (human PBMC T cell lines): 11 of 12 and all 5 individuals | Effective immunizing dose (C57BL/6J (H-2^b+) mice): 0.05 μg/mouse

CC(C)C[C@H](NC(=O)[C@@H](NC(=O)[C@H](C)NC(=O)[C@H](CCC(=O)O)NC(=O)[C@H](C)NC(=O)[C@H](C)NC(=O)[C@H](CC1CCCCC1)NC(=O)[C@H](C)NC(=O)[C@@H](C)N)[C@@H](C)O)C(=O)N[C@@H](CCCCN)C(=O)N[C@@H](C)C(=O)N[C@@H](C)C(=O)N[C@H](C)C(N)=O [Peptide 906.19]
Increase in DR53 reactivity (DRw53 [5]): 20 fold | PADRE Class II Binding Affinities DR7 (DR7): DR7 reactivity was lost | IC50 (DR7; read-out: PADRE Class II Binding Affinities DR7): 250000 nM | IC50 (DR5; read-out: PADRE Class II Binding Affinities DR5): 6.5 nM

CC(C)C[C@H](NC(=O)[C@@H](NC(=O)[C@H](Cc1c[nH]cn1)NC(=O)[C@H](C)NC(=O)[C@H](C)NC(=O)[C@@H](NC(=O)[C@H](CC1CCCCC1)NC(=O)[C@H](CCCCN)NC(=O)[C@@H](C)N)C(C)C)[C@@H](C)O)C(=O)N[C@@H](CCCCN)C(=O)N[C@@H](C)C(=O)N[C@@H](C)C(=O)N[C@H](C)C(N)=O [Peptide 955.15]
Donors with significant (>10,000 cpm) T cell response / donors tested, second stimulation (human PBMC T cell lines): 2/15 | Donors with significant (>10,000 cpm) T cell response / donors tested, third stimulation (human PBMC T cell lines): 4/5 | IC50 (DR4w4 [6]): 3.2 nM | IC50 (DRw53 [1]): 50 nM | IC50 (DR3 [2]; PADRE Class II Binding Affinities DR3, Table IX): 2500 nM | IC50 (DR2w2a [3]; PADRE Class II Binding Affinities DR2w282, Table IX): 5.4 nM

C[C@H](NC(=O)[C@H](C)NC(=O)[C@H](C)NC(=O)[C@H](CC1CCCCC1)NC(=O)[C@H](C)NC(=O)[C@@H](C)N)C(=O)N[C@@H](C)C(=O)N[C@H](C(=O)N[C@@H](CCC(=O)O)C(=O)N[C@@H](CCCCN)C(=O)N[C@@H](C)C(=O)N[C@@H](C)C(=O)N[C@H](C)C(N)=O)[C@@H](C)O [Peptide 906.30] (H-[dA]A[Cha]AAAATEKAA[dA]-NH2; N-terminus and C-terminus assumed)
IC50 (DQ3.1; [10]): 148 nM | Increase in DQ3.1 binding reactivity (DQ3.1; relative to parent 760.57): no reactivity was gained | Loss of DR1 binding reactivity (DR1): 8 fold | Loss of DR4w4 binding reactivity (DR4w4 [7]): 7 fold | IC50 (DR7; [11]): 758 nM | Loss of DR7 binding reactivity (DR7): 10 fold | IC50 (DR5; [12]): 51.5 nM | Loss of DR5 binding reactivity (DR5; relative to parent 760.57): 10 fold

CC(C)C[C@H](NC(=O)[C@@H](NC(=O)[C@H](C)NC(=O)[C@H](CCC(N)=O)NC(=O)[C@H](C)NC(=O)[C@H](C)NC(=O)[C@H](CC1CCCCC1)NC(=O)[C@H](C)NC(=O)[C@@H](C)N)[C@@H](C)O)C(=O)N[C@@H](CCCCN)C(=O)N[C@@H](C)C(=O)N[C@@H](C)C(=O)N[C@H](C)C(N)=O [Peptide 906.20] (H-[dA]A[Cha]AAQATLKAA[dA]-NH2; N-terminus and C-terminus assumed)
IC50 (DQ3.1; [10]): 652 nM | PADRE Class II Binding Affinities DR3 (DR3 [8]; Table VIII A): loss of DR3 binding | IC50 (DR7; [11]): 2500 nM | Loss of DR7 binding reactivity (DR7): 30 fold | IC50 (DR5; [12]): 4.1 nM

aKFVAAWTLKAAa [Peptide 1024.03]
IC50 (DQ3.1; read-out: Capacity to bind purified DQ3.1, IC50): 23 nM | IC50 (IE^k): 3500 nM | IC50 (DR5; [9]): 18 nM | Effective immunizing dose (C57BL/6J (H-2^b+) mice): 0.05 μg/mouse

CC(C)C[C@H](NC(=O)[C@@H](NC(=O)[C@H](C)NC(=O)[C@H](C)NC(=O)[C@H](C)NC(=O)[C@H](C)NC(=O)[C@H](CC1CCCCC1)NC(=O)[C@H](C)NC(=O)[C@@H](C)N)[C@@H](C)O)C(=O)N[C@@H](CCCCN)C(=O)N[C@@H](C)C(=O)N[C@@H](Cc1ccccc1)C(=O)N[C@H](C)C(N)=O [Peptide 906.50] (H-[dA]A[Cha]AAAATLKAF[dA]-NH2; N-terminus and C-terminus assumed)
IC50 (DQ3.1; [10]): 20 nM | Increase in DR3 reactivity (DR3 [8]; relative to parent 760.57): 8 fold | Increase in DR53 reactivity (DRw53 [5]; relative to parent 760.57): 40 fold | IC50 (DR7; [11]): 73.5 nM | IC50 (DR5; [12]): 9.5 nM
